The values that follow come from patent publication US8143282B2, “Heterocyclic compounds” (S*BIO Pte Ltd., priority 2005, dated 2012).

One data set relates to acetylated histone H3. As to the kind of experiment: Histone H3 acetylation assay (immuno-blotting) in Colo205 cells. The class given is cell-based, Human. The following applies: 10 μM, 24 h, western-blot. The protocol:
A hallmark of histone deacetylase (HDAC) inhibition is the increase in the acetylation level of histones. Histone acetylation, including H3, H4 and H2A can be detected by immuno-blotting (western-blot). Colo205 cells, approximately 5×10^5 cells, were seeded in the previously described medium, cultivated for 24 h and subsequently treated with HDAC inhibitory agents and a positive control at a final concentration of 10 μM. After 24 h, cells were harvested and lysed according to the instruction from Sigma Mammalian Cell Lysis Kit. The protein concentration was quantified using BCA method (Sigma Pte Ltd). The protein lysate was separated using 4-12% bis-tris SDS-PAGE gel (Invitrogen Pte Ltd) and was transferred onto PVDF membrane (BioRad Pte Ltd). The membrane was probed using primary antibody specific for acetylated histone H3 (Upstate Pte Ltd). The detection antibody, goat anti rabbit antibody conjugated with HRP was used according to the manufacturing instruction (Pierce Pte Ltd). After removing the detection antibody from the membrane, an enhanced chemiluminescent substrate for detection of HRP (Pierce Pte Ltd) was added onto the membrane. After removing the substrate, the membrane was exposed to an X-ray film (Kodak) for 1 sec-20 mins. The X-ray film was developed using the X-ray film processor. The density of each band observed on the developed film could be qualitatively analyzed using UVP Bioimaging software (UVP, Inc, Upland, Calif.). The values were then normalized against the density of actin in the corresponding samples to obtain the expression of the protein.

Another data set relates to HCT116. As to the kind of experiment: Cell-based proliferation assay for GI50 (CyQUANT), HCT116. The note with it: Homo sapiens, HCT-116; HCT116, 96 h treatment; read-out: Cellular or Growth Inhibition Activity, GI50, HCT116. The protocol: (§1) Human colon cancer cell lines (Colo205, HCT116), Ovarian cancer cell line (A2780), Hepatoma cell line (HEP3B), Prostate cancer cell line (PC3) were obtained from ATCC or ECACC. Colo205 cells were cultivated in RPMI 1640 containing 2 mM L-Glutamine, 5% FBS, 1.0 mM Na Pyruvate, 1 U/ml of penicillin and 1 μg of streptomycin. HCT116 cells were cultivated in McCoy's containing RPMI 1640 containing 2 mM L-Glutamine, 5% FBS, 1 U/ml of penicillin and 1 μg of streptomycin. A2780 cells were cultivated in RPMI 1640 containing 2 mM L-Glutamine, 5% FBS, 1 U/ml of penicillin and 1 μg of streptomycin. HEP3B cells were cultivated in EMEM containing 2 mM L-glutamine, 5% FBS, 1% non essential amino acid, 1 mM Na Pyruvate, 1 U/ml of penicillin and 1 μg of streptomycin. PC3 cells were cultivated in F12K, 2 mM L-glutamine, 5% FBS, 1 U/ml of penicillin and 1 μg of streptomycin. PC3, Colo205, and HCT116 cells were seeded in 96-wells plate at 1000, 5000 and 6000 cells per well respectively. A2780 and HEP3B cells were seeded in 96-wells plate at 4000 cells per well respectively. The plates were incubated at 37° C., 5% CO2, for 24 h. Cells were treated with compounds at various concentrations for 96 h. Cell growth was then monitored using CyQUANT® cell proliferation assay (Invitrogen Pte Ltd). Dose response curves were plotted to determine GI50 values for the compounds using XL-fit (ID Business Solution, Emeryville, Calif.). GI50 is defined as the concentration of compound required for 50% inhibition of cell growth.

Another data set has as its system PC3. As to the kind of experiment: Cell-based proliferation assay for GI50 (CyQUANT), PC3. The following applies: Homo sapiens, PC-3; PC3, 96 h treatment; read-out: Cellular or Growth Inhibition Activity, GI50, PC3. The protocol: as §1
A short description of data set [1]: In vivo pharmacokinetic (PK) studies. The note with it: mouse, plasma, po; mice, hydrochloric acid salt form (2HCl), 50 mg/kg. The protocol: Compound was dissolved in appropriate solution (saline or DMA and Cremaphor in saline) at 1 mg/ml for intravenous (IV) administration, or in 0.5% methyl cellulose, 0.1% Tween 80 in water at 5 mg/ml for oral administration. Mice were randomized according to body weight, grouped three per time point. Mice were administered single IV dose (10 mg/kg) via tail vein, or single oral dose (50 mg/kg) via gavage. At pre-defined time points (predose, 5 or 10, 30 min, 1, 2, 4, 8, and 24 h), one group of mice was sacrificed by overdose CO2 and blood samples were collected by cardiac puncture. The blood samples were centrifuged immediately for 10 min at 3000 rpm to separate plasma, and plasma was kept frozen at −80° C. until analysis by LC/MS/MS. Before sample analysis, the method was developed for LC/MS/MS assay. The method was validated for signal-response of the calibration standards, auto-sampler stability for ˜15 hours intra-day and inter-day calibration curve using eight calibration standards excluding the blank plasma. QC samples at three different concentrations in triplicates were prepared to determine the accuracy and precision. The extracted QC samples were compared to unextracted samples to determine the extraction efficiency of the analyte. LLOQ was determined by using triplicate samples of 1 ng/mL and 2 ng/mL to obtain accuracy and precision at the low end. Samples were analysed using the validated method. Data was analyzed by the non-compartmental model using WinNolin 4.0 software (Pharsight, Mountain View, Calif., USA). The mean values for the plasma compound concentration-time profiles were used in mouse PK study.
The PK parameter AUC0-last providing the information on the overall exposure of the drug in vivo is one of the key PK/PD parameters that helps in predicting the efficacy of an anti-cancer compound. The higher the AUC value, the better will be the in vivo efficacy of the compound at similar in vitro potency.

The nature of data set [2]: Measurement of microsomal stability. Type of data set: in vitro ADME. The following applies: pooled human liver microsomes, pH 7.4; human liver microsome, 5 μM test compound, 1.0 mg/ml microsomal protein.

On to `CCCc1nc2cc(/C=C/C(=O)NO)ccc2n1CCNCCC(C)(C)C` [Compound 130, 3-{1-[2-(3,3-Dimethyl-butylamino)-ethyl]-2-propyl-1H-benzoimidazol-5-yl}-N-hydroxy-acrylamide], for which the “Histone Acetylation activities (Histone-3)” value in the data set with acetylated histone H3 is recorded as “Active”. For the same compound, the GI50 in the data set on HCT116 and in the data set with PC3 was < 500 nM throughout. Besides, the area under the curve AUC(0-t) in data set [1] was 1050 ng·h/mL. Besides, the half-life at 5 μM in data set [2] is > 30 min.
